Assay results reported in PubChem BioAssay AID1963862 (Molecular Pharmacology Branch, DTP, NCI, 2024).

Tested on: KRAS patient-derived spheroids with HUVEC/MSC, viability
Assay: Anticancer human tumor 941728-121-R-J1-PDC patient-derived lung adenocarcinoma cell line growth inhibition [KRAS2]
Conditions: for IC50: curve of first compound; for viability, T/C: stronger effect = lower value
How it was run: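 Combination screen of spheroid viability in tumor-cell co-cultures with endothelial (HUVEC) and mesenchymal stem cell stroma. Each agent was tested in half-log dilutions, topping at clinical Cmax or at 10 microM without a known Cmax.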

[1] = second compound 0.1 µM, first compound 0.00316 µM
[2] = second compound 0.1 µM, first compound 0.01 µM
[3] = second compound 0.1 µM, first compound 0.0316 µM
[4] = second compound 0.1 µM, first compound 0.1 µM
[5] = second compound 0.1 µM, first compound 0.316 µM
[6] = second compound 0.1 µM, first compound 1 µM
[7] = second compound 0.316 µM, first compound 0.00316 µM
[8] = second compound 0.316 µM, first compound 0.01 µM
[9] = second compound 0.316 µM, first compound 0.0316 µM
[10] = second compound 0.316 µM, first compound 0.1 µM
[11] = second compound 0.316 µM, first compound 0.316 µM
[12] = second compound 0.316 µM, first compound 1 µM
[13] = second compound 1 µM, first compound 0.00316 µM
[14] = second compound 1 µM, first compound 0.01 µM
[15] = second compound 1 µM, first compound 0.0316 µM
[16] = second compound 1 µM, first compound 0.1 µM
[17] = second compound 1 µM, first compound 0.316 µM
[18] = second compound 1 µM, first compound 1 µM
[19] = second compound 3.16 µM, first compound 0.00316 µM
[20] = second compound 3.16 µM, first compound 0.01 µM
[21] = second compound 3.16 µM, first compound 0.0316 µM
[22] = second compound 3.16 µM, first compound 0.1 µM
[23] = second compound 3.16 µM, first compound 0.316 µM
[24] = second compound 3.16 µM, first compound 1 µM
[25] = second compound 10 µM, first compound 0.00316 µM
[26] = second compound 10 µM, first compound 0.01 µM
[27] = second compound 10 µM, first compound 0.0316 µM
[28] = second compound 10 µM, first compound 0.1 µM
[29] = second compound 10 µM, first compound 0.316 µM
[30] = second compound 10 µM, first compound 1 µM
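Note: spheroids exposed to agents for seven days before readout.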

SMILES: CCN1CCN(Cc2ccc(Nc3ncc(F)c(-c4cc(F)c5nc(C)n(C(C)C)c5c4)n3)nc2)CC1 + COc1cc2nc(C)nc(NC(C)c3cc(N)cc(C(F)(F)F)c3)c2cc1OC1CCOC1
- IC50 (second compound 0.1 µM): < 3.16 nM
- IC50 (second compound 0.316 µM): < 3.16 nM
- IC50 (second compound 1 µM): < 3.16 nM
- IC50 (second compound 3.16 µM): < 3.16 nM
- IC50 (second compound 10 µM): < 3.16 nM
- viability, T/C [1]: 45.9%
- viability, T/C [2]: 41%
- viability, T/C [3]: 34.2%
- viability, T/C [4]: 36.8%
- viability, T/C [5]: 42%
- viability, T/C [6]: 43.3%
- viability, T/C [7]: 44.2%
- viability, T/C [8]: 35.3%
- viability, T/C [9]: 28.8%
- viability, T/C [10]: 31.7%
- viability, T/C [11]: 35.3%
- viability, T/C [12]: 40.8%
- viability, T/C [13]: 27.8%
- viability, T/C [14]: 28.7%
- viability, T/C [15]: 28.5%
- viability, T/C [16]: 27.7%
- viability, T/C [17]: 22.1%
- viability, T/C [18]: 32.9%
- viability, T/C [19]: 23.3%
- viability, T/C [20]: 22.7%
- viability, T/C [21]: 21.1%
- viability, T/C [22]: 19.5%
- viability, T/C [23]: 15.6%
- viability, T/C [24]: 14.5%
- viability, T/C [25]: 17.2%
- viability, T/C [26]: 6.08%
- viability, T/C [27]: 2.12%
- viability, T/C [28]: 0.46%
- viability, T/C [29]: 0.87%
- viability, T/C [30]: 0.85%

SMILES: CCNC(=O)CC1N=C(c2ccc(Cl)cc2)c2cc(OC)ccc2-n2c(C)nnc21 (stereo not given) + COc1cc2nc(C)nc(NC(C)c3cc(N)cc(C(F)(F)F)c3)c2cc1OC1CCOC1
- IC50 (second compound 0.1 µM): 36.2 nM
- IC50 (second compound 0.316 µM): < 31.6 nM
- IC50 (second compound 1 µM): < 31.6 nM
- IC50 (second compound 3.16 µM): < 31.6 nM
- IC50 (second compound 10 µM): < 31.6 nM
- viability, T/C [3]: 49.5%
- viability, T/C [4]: 48.2%
- viability, T/C [5]: 30.6%
- viability, T/C [6]: 16.1%
- viability, T/C (second compound 0.1 µM, first compound 3.16 µM): 11.1%
- viability, T/C (second compound 0.1 µM, first compound 10 µM): 9.43%
- viability, T/C [9]: 46.2%
- viability, T/C [10]: 42.6%
- viability, T/C [11]: 34.4%
- viability, T/C [12]: 12.6%
- viability, T/C (second compound 0.316 µM, first compound 3.16 µM): 9.51%
- viability, T/C (second compound 0.316 µM, first compound 10 µM): 9.32%
- viability, T/C [15]: 45.1%
- viability, T/C [16]: 40.7%
- viability, T/C [17]: 29.2%
- viability, T/C [18]: 8.81%
- viability, T/C (second compound 1 µM, first compound 3.16 µM): 7.25%
- viability, T/C (second compound 1 µM, first compound 10 µM): 6.02%
- viability, T/C [21]: 38.3%
- viability, T/C [22]: 33%
- viability, T/C [23]: 23.5%
- viability, T/C [24]: 8.14%
- viability, T/C (second compound 3.16 µM, first compound 3.16 µM): 7.37%
- viability, T/C (second compound 3.16 µM, first compound 10 µM): 8.71%
- viability, T/C [27]: 20.3%
- viability, T/C [28]: 13.9%
- viability, T/C [29]: 14.2%
- viability, T/C [30]: 3.3%
- viability, T/C (second compound 10 µM, first compound 3.16 µM): 2.65%
- viability, T/C (second compound 10 µM, first compound 10 µM): 1.91%

SMILES: Cn1ncnc1[C@H]1c2n[nH]c(=O)c3cc(F)cc(c23)N[C@@H]1c1ccc(F)cc1 + COc1cc2nc(C)nc(NC(C)c3cc(N)cc(C(F)(F)F)c3)c2cc1OC1CCOC1
- IC50 (second compound 0.1 µM): > 100 nM
- IC50 (second compound 0.316 µM): < 0.316 nM
- IC50 (second compound 1 µM): < 0.316 nM
- IC50 (second compound 3.16 µM): < 0.316 nM
- IC50 (second compound 10 µM): < 0.316 nM
- viability, T/C (second compound 0.1 µM, first compound 0.000316 µM): 61.1%
- viability, T/C (second compound 0.1 µM, first compound 0.001 µM): 51.9%
- viability, T/C [1]: 47.1%
- viability, T/C [2]: 52.2%
- viability, T/C [3]: 66.2%
- viability, T/C [4]: 58.8%
- viability, T/C (second compound 0.316 µM, first compound 0.000316 µM): 48.9%
- viability, T/C (second compound 0.316 µM, first compound 0.001 µM): 41.8%
- viability, T/C [7]: 36.7%
- viability, T/C [8]: 36.8%
- viability, T/C [9]: 47.6%
- viability, T/C [10]: 48%
- viability, T/C (second compound 1 µM, first compound 0.000316 µM): 41.6%
- viability, T/C (second compound 1 µM, first compound 0.001 µM): 31.4%
- viability, T/C [13]: 30.7%
- viability, T/C [14]: 25.6%
- viability, T/C [15]: 33.5%
- viability, T/C [16]: 28.7%
- viability, T/C (second compound 3.16 µM, first compound 0.000316 µM): 36.6%
- viability, T/C (second compound 3.16 µM, first compound 0.001 µM): 34.4%
- viability, T/C [19]: 32.1%
- viability, T/C [20]: 27.4%
- viability, T/C [21]: 22.1%
- viability, T/C [22]: 23.6%
- viability, T/C (second compound 10 µM, first compound 0.000316 µM): 14.5%
- viability, T/C (second compound 10 µM, first compound 0.001 µM): 11.8%
- viability, T/C [25]: 13.1%
- viability, T/C [26]: 8%
- viability, T/C [27]: 9.61%
- viability, T/C [28]: 10.3%
